Data set [1] deals with all cancer cell lines (HepG2, Huh7, PANC-1, H1975, MDA-MB-231). Briefly: Anti-proliferative activity, pooled statement over all cancer cell lines. In kind it is cell-based, human. The settings on record: read-out: half maximum inhibitory concentration (IC50), range in all cancer cell lines. Here is the method: Anti-proliferative activity of HepG2, Huh7 or PANC-1 cells was determined by 3-(4,5-dimethylthiazol-2-yl)-2,5-diphenyltetrazolium bromide (MTT) assay, while that of H1975 or MDA-MB-231 cells was determined by luminescent assay with the aid of commercial kit CellTiter-Glo® (Promega).
Cancer cells including HepG2, Huh7 and PANC-1 cells were respectively seeded at 10^4, 4×10^3, and 5×10^3 cells/well in 96-well plates and maintained for 14-16 hours. Cells were treated with dimethylsulfoxide (DMSO) or test compounds in varied concentrations for 72 h. Cells were then washed with PBS twice, added a medium containing 3-(4,5-dimethylthiazol-2-yl)-2,5-diphenyltetrazolium bromide (MTT) at a final concentration of 0.5 mg/mL, and incubated for 4 h at 37° C. in a humidified incubator containing 5% CO2 in air. Cells having functional succinate dehydrogenase of mithchondria would convert MTT to formazan. Then, the medium was replaced with 100 μL of DMSO for 30 min at room temperature, and the 96-well plate was read by an ELISA reader at 550 nm to get the absorbance density values. The IC50 values of death cell lines were calculated accordingly.
For H1975 and MDA-MB-231, cells were respectively seeded at 5×10^3 cells/well in 96-well plates and maintained for 14-16 hours. Cells were treated with dimethylsulfoxide (DMSO) or test compounds in varied concentrations for 48 h. Cell viability was monitored using Cell-TiterGlo (Promega), a kit that measures the quantity of ATP present in the cell culture, an indicator of metabolically active cells. The IC50 values of death cell lines were calculated accordingly.

In data set [2] the test system is Huh7 cells. Briefly: N-glycan profiling by mass spectrometric analysis. Conditions: Huh7, 0.1 to 10 μM, 72 h. In kind it is cell-based, human. On the procedure:
(§1) To this purpose, HepG2 and Huh7 cells were treated with ACK900 in dose-dependent manner (0.1 to 10 μM) for 72 h and N-glycan profiling was determined using mass spectrometric analysis. (FIGS. 1B and 1C)), This method was based on matching the experimental masses with the predicted masses of the glycans from the CFG carbohydrate database. The individual glycoforms were quantified and calculated for their proportions in all the glycoforms. Most N-glycans of untreated HepG2 and Huh7 were dominated by complex-type glycans containing sialic acids and fucoses. High-mannose or hybrid-type glycans were found in a relatively low percentage. […] These glycoform data from MS analysis were consistent with the surface binding of lectin using fluorescence microscopy.

In data set [3] the test system is HepG2 cells. The experiment in a line: N-glycan profiling by mass spectrometric analysis. In kind it is cell-based, human. The settings on record: HepG2, 0.1 to 10 μM, 72 h. On the procedure:
as §1

Data set [4] in a line: Serum biochemistry assay in Huh7 xenograft mice. It counts as in vivo, NOD-SCID mice. Conditions: serum, 30 mg/kg i.p., twice a week. Here is the method: All blood specimens were collected in tubes and were left at 25° C. for 30 min to clot and centrifuged for 10 min at 1200 g. The concentrations of the following biochemical serum analytes collected were measured with FUJI DRI-CHEM 500i analyzer (FUJIFILM Corp., Tokyo, Japan) using the manufacturer's reagents and according to the manufacturer's instructions: Alanine Aminotransferase ALT), Aspartate Aminotransferase (AST), Blood Urea Nitrogen (BUN), Creatinine (CRE) and Total Bilirubin (TBIL).
HCC xenografts were established in 5-6 weeks old NOD-SCID mice by subcutaneous inoculation of about 5×10^6 Huh7 cells suspended in 50 μL PBS+50 μL, Matrigel (Corning, 394230) in the left and right flanks of each mouse. After one week of inoculation, tumors were palpable and the mice were assigned randomly to 1 of 4 treatment groups. Group 1 (vehicle control group, n=6) mice only received a vehicle solution containing Kolliphor EL (Sigma Aldrich, C5135), 99.9% ethanol and water in a ratio of 1:1:6. Groups 2, 3, 4 and 5 mice were intraperitoneally injected with the test compound (e.g., compound ACK900, ACK901, or ACK902) (30 mg/kg, ip, n=7/group) or sorafenib (30 mg/kg, ip, n=6/group), twice per week for 25 days. The tumor volume was calculated by the formula of a ratioinal ellipsoid: [0.5236×short axis) m1^2×(long axis)m^2], and the tumor volume was measured twice per week. All mice were sacrificed at 27 days after the treatment started. Tumor tissues were isolated, photographed and weighted.
In vivo tumor growth inhibition studies in human Huh7 xenograft rodents were performed in accordance with procedures as described in the “Material and Method” section. Xenograft tumors were generated by implanting Huh7 cells (5×10^6) subcutaneously into the left and right flanks of each NOD-SCID mouse. Starting on the 7th day after the inoculation of Huh7 cells, the mice were injected with ACK900, ACK901, ACK902 or sorafenib intraperitoneally (i.p.) at a dose of 30 mg/kg and twice a week for 34 days.

Data set [5] has as its system Huh7 cells. The experiment in a line: Transwell migration assay. Conditions: 18 hours. In kind it is cell-based, human. Here is the method:
(§2) Chemotaxis experiments with human HepG2Huh7, or PANC-1 cells were assayed by using transwells (Millipore). The cells to be analyzed (5×10^4 cells/well) were seeded in the upper chambers of the 24-well plate in 400 μL serum-free medium. FBS (10%) was used as the chemoattractant with or without different concentrations of the test compound (e.g., ACK900, ACK901, ACK902) in the lower chamber, and the plate was incubated under standard conditions. After incubation for 18 hours, the media in the upper chambers were aspirated and washed with phosphate-buffered saline (PBS) twice. Both non-migrated and migrated cells were fixed with 4% paraformaldehyde (PFA) for 30 minutes at room temperature, stained with 2% crystal violet solution. The non-invading cells were removed from the upper surface of the insert membrane with a cotton swab. The images were taken using an imaging reader (Cytation 5, BioTek, VT, U.S.A.) and analyzed using NIH ImageJ software. Percent in the results represent percent of initial number of cells in the migrating and nonmigrating Cell fractions.

The subject of data set [6] is PANC-1 cells. Briefly: Transwell migration assay. In kind it is cell-based, human. Conditions: PANC-1, transwell, 18 hours. On the procedure:
as §2

In data set [7] the test system is HepG2 cells. The experiment in a line: Transwell migration assay. In kind it is cell-based, human. Conditions: 18 hours. On the procedure: as §2

pIC50: −log10 of the molar value.

For the molecule `CCC[C@H]1CC[C@H](c2ccc(NC(=S)NC[C@@H]3[C@@H](O)[C@@H](O)[C@H]4[C@H](O)CCCN43)cc2)CC1` [ACK900], the pIC50 in data set [1] was 4.72 to 6.52. In addition, in data set [2], the N-glycan pattern entry is on record as “significant shift of N-glycopatterns from complex chains to the hybrid-type glycan”. Also, the N-glycan pattern entry in data set [3] is “significant shift of N-glycopatterns from complex chains to the hybrid-type glycan”. In data set [4], the ALT came out at 101.57 ± 70.63 U/L, the AST was determined as 223.42 ± 157.00 U/L, the BUN turned out to be 22.37 ± 4.41 mg/dL and the CRE was 0.33 ± 0.05 mg/dL. Further, in data set [4], the TBIL was determined as 0.55 ± 0.18 mg/dL. The migratory capability entry in data set [5] is “remarkably decreased”. The migratory capability entry in data set [6] is “remarkably decreased”. The migratory capability result in data set [7] is on record as “remarkably decreased”.

(Values after patent US20240190866A1, “POLYHYDROXYLATED INDOLIZIDINE AND PYRROLIZIDINE DERIVATIVES AND USES THEREOF” (Academia Sinica, priority 2021, published 2024).)
